The test system of this data set is human skin. Kind of data set: Dermal exposure test. The format is in vivo. From the text: The objective of this study was to evaluate the dermal irritancy and corrosiveness of the composition of Example 2, following a single application to human skin. To assess the safety upon spillage on human skin, a few drops of the synthetic acid according to a preferred embodiment of the present invention and a control composition (MSA—70%) were applied to the skin on the back of the hand of a test individual. The hands were not covered and remained exposed to the compositions for a period of up to one hour. The exposed skin was subsequently washed with soap and visual assessment of the exposed area was done 24 hours after the start of the exposure.

With `CS(=O)(=O)O` [MSA (70%), Methanesulfonic acid], the “Dermal exposure, skin observation” value runs as follows: (24 hrs from exposure, after washing with soap) “scab formation”; (back of hand, 0 hrs from exposure) “immediate burning”; (back of hand, 1 hrs from exposure) “red skin irritation with large blisters”; (back of hand, ½ hrs from exposure) “small blisters”.
